Test results published in patent US12617770B2, “IRAK inhibitor and preparation method therefor and use thereof” (WUHAN CREATERNA SCIENCE AND TECHNOLOGY CO., LTD., priority 2019, dated 2026).

Columns and labels:
CYP1A2 = target: T1, CYP1A2 (Homo sapiens, UniProt P05177); assay: CYP450 inhibition in human liver microsomes, CYP1A2; assay type: in vitro ADME; details: pooled (mixed) human liver microsomes, probe phenacetin
T1 construct: co-incubated at 7 concentrations with human liver microsomes and five probe substrates; tissue Corning (USA); host or cells: mixed (pooled) human liver microsomes
T1 sequence (P05177 1-516): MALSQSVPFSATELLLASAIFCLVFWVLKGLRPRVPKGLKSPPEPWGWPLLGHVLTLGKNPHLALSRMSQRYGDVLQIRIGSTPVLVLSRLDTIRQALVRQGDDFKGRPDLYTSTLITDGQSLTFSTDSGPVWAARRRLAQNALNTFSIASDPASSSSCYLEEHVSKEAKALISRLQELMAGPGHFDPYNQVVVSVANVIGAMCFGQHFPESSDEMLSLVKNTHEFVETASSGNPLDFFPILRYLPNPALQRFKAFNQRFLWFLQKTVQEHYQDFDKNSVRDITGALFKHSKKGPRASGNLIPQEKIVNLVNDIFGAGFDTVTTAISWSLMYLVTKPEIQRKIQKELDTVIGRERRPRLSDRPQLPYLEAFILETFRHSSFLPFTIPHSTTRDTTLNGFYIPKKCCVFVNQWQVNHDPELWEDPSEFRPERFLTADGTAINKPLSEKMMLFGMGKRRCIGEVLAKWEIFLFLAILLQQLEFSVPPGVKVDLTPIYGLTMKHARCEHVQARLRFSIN
Description: This study was intended to investigate the inhibitory effect of the test compounds on 5 major enzymes in human P450 superfamily, CYP1A2, 2C9, 2C19, 2D6 and 3A4-M. The mixed human liver microsomes used in this assay were purchased from Corning (USA). The test compound (compound 14) was co-incubated at 7 concentrations with human liver microsomes and five probe substrates (phenacetin for CYP1a2, diclofenac for CYP2C9, mephenytoin for CYP2C19, dextromethorphan for CYP2D6, midazolam for CYP3A4-M, mixed). The reaction was initiated by adding coenzyme NADPH, and terminated by adding acetonitrile containing internal standard. After the proteins were precipitated, the supernatant was centrifuged. The characteristic metabolites in the supernatant (acetaminophen for CYP1A2, 4-hydroxydiclofenac for CYP2C9, 4-hydroxymephenytoin for CYP2C19, dextrorphan for CYP2D6, 1-hydroxymidazolam for CYP3A4-M) were analyzed by LC-MS/MS. The influence of the test compounds on production of the characteristic metabolites was finally analyzed on the basis of the data obtained. A selective inhibitor (ketoconazole for CYP3A4-M) may be used as positive control. All samples were tested in duplicate.

[1] = Plasma protein binding (PPB), equilibrium dialysis, rat plasma; assay type: in vitro ADME; details: 5 h at 37° C., read-out: Plasma protein binding (Bound %) Rat (converted)
Description: The experiment is intended to determine plasma protein binding (PPB) data of the test compounds disclosed herein.
In the PPB experiment, the final administration matrix contained the test compound or a reference compound with a concentration of 1 μM and DMSO with a content of 0.2%.
Collecting samples in initial time: 25 μL of the matrix containing the compound was added into a blank 96-well collecting plate, and the plate was stored at −20° C.
An equilibrated dialysis device was prepared. 100 μL of buffer was added to the receiving side of the equilibrium dialysis plate. Then 100 μL of the administration matrix containing the compound or the reference compound was added into an administration side of the equilibrium dialysis plate. The prepared equilibrium dialysis plate was placed in a 37° C. shaker to be shaken for 5 h at 60 rpm.
Sample was prepared at the end of cultivation (5 h): Preparing sample in the receiving side: 25 μL of sample from a receiving side was taken out and placed in a 96-well sample collecting plate, and 25 μL of a corresponding matrix (blank plasma) was added for mixing: 200 μL of ACN containing an internal standard was added, shaken for 10 minutes at 600 rpm, and centrifuged at 5594 g for 15 min.
Preparing sample in the administration side: 25 μL of the sample containing test compound and reference compound from the administration side was taken out and 25 μL of a blank buffer was added for mixing; 200 μL of ACN containing an internal standard was added, shaken for 10 minutes at 600 rpm, and centrifuged at 5594 g for 15 min.
Preparing sample in initial time: the sample containing test compound and reference compound was re-melted at 37° C. in initial time and then mixed with the corresponding matrix (blank buffer) in the same volume (25 μL); 200 μL of ACN containing an internal standard was added, shaken for 10 minutes at 600 rpm, and centrifuged at 5594 g for 15 min.
After all the samples were centrifuged, 50 μL of a supernatant was taken and added into 50 μL of ultrapure water for mixing, and the samples were sent to liquid chromatography-mass spectrometry.

human IRAK1 = target: T2, human IRAK1 (Homo sapiens, UniProt P51617); assay: IRAK1 MSA (Mobility-Shift Assay) at Km concentration of ATP; assay type: biochemical; details: for IC50: read-out: IRAKI IC50; for IRAKI IC50 (nM)/ IRAK4 IC50 (nM): selectivity ratio IRAK1 to IRAK4
T2 construct: purchased Cama (so in the source)
Description: This assay evaluated the inhibitory effect of the compounds on human IRAK1 activity with the same materials as in Test Example 1.
A recombinant fusion protein of N-terminal GST (glutathione-S-transferase) and human IRAK1 was used as enzyme (GST-IRAK1, kinase IRAK1, Cama) at a final concentration of 3 nM: ATP (Sigma) was at a final concentration of 97 μM; the substrates used for the kinase reaction were 5-FAM (5-carboxyfluorescein)-labeled polypeptide (5-FAM-[…]-COOH) and substrate peptide FAM-P8 (GL Biochem) at final concentrations of 5 μM.
In this assay, 500 μM stock solutions of the compounds were prepared in 100% DMSO, and serially 4-fold diluted to the 10th concentration gradient with 100% DMSO, followed by a 10-fold dilution in the compound buffer (50 mM HEPES, pH 7.5, 0.00015% Brij-35) to give intermediate dilutions of the compounds at a final concentration of 10 μM−0.04 nM containing 10% DMSO. 5 μL of the intermediate dilution was transferred into a black 384-well plate.
IRAK1 was diluted to 7.5 nM in the kinase buffer (50 mM HEPES, pH 7.5, 0.00015% Brij-35, 2 mM DTT). 10 μL of the IRAK1 dilution was transferred to the 384-well plate and co-incubated with the compound for 10-15 min.
The substrate and ATP were diluted to 12.5 μM and 242.5 μM with reaction buffer (50 mM HEPES, pH 7.5, 0.00015% Brij-35, 10 mM MgCl2), respectively. 10 μL of the dilution was transferred to a 384-well plate and incubated at 28° C. for 1 h. The reaction was terminated by adding 25 μL of 50 mM EDTA to the 384-well plate.
The inhibition of IRAK1 by the compounds was calculated by measuring the rate of phosphorylated substrate using a Caliper EZ Reader (PerkinElmer) and the IC50 was calculated by XL-fit software.

T2 sequence (P51617 whole entry): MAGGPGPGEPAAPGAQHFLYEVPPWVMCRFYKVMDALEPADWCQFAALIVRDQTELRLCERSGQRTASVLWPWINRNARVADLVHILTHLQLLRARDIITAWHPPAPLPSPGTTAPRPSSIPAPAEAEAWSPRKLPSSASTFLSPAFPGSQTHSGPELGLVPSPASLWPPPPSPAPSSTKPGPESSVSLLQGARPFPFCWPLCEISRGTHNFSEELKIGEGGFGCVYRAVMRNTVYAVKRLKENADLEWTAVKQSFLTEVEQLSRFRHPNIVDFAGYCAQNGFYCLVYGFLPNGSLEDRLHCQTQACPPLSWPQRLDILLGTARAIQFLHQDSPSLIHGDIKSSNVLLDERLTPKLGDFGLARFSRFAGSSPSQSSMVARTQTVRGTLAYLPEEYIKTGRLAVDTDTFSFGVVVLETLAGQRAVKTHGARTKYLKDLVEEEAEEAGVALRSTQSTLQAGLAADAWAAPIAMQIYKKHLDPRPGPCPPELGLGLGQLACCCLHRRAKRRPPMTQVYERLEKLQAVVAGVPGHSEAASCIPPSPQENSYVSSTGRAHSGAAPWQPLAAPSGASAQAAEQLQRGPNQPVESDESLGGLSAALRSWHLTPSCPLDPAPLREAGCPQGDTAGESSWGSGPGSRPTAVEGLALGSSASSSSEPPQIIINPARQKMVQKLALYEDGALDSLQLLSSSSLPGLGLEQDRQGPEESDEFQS

SMILES	IC50 (CYP1A2) [µM]	fraction unbound at 5 h, 1 μM [1]	IC50 (human IRAK1) [µM]	IRAKI IC50 (nM)/ IRAK4 IC50 (nM) (human IRAK1)
COc1cc2nn([C@H]3CC[C@](C)(O)CC3)cc2cc1NC(=O)c1cccc(C)[n+]1[O-] [Compound 001, 2-((2-((1r,4r)-4-hydroxy-4-methylcyclohexyl)-6-methoxy-2H-indazol-5-yl)carbamoyl)-6-methylpyridine 1-oxide]	> 30	0.153	4.04	673.2
COc1cc2nn(CCC(C)(C)O)cc2cc1NC(=O)c1cccc(C)[n+]1[O-] [Compound 163, 2-((2-(3-hydroxy-3-methylbutyl)-6-methoxy-2H-indazol-5-yl)carbamoyl)-6-methylpyridine 1-oxide]	> 30	0.194	2.99	130.1
